Measured values as given in paper PMC11965660, “Isobavachalcone ameliorates Alzheimer disease pathology by autophagy-mediated clearance of amyloid beta and inhibition of NLRP3 inflammasome in primary astrocytes and 5x-FAD mice” (Frontiers in Pharmacology, 2025).
Like-named read-outs stand apart in the source and are kept apart here.

Legend:
NLRP3 inflammasome = NLRP3 inflammasome activation in primary astrocytes, IL-1β and IL-18 release by ELISA; assay type: cell-based, C57BL/6J mice; details: for IC50: Mus musculus, Astrocyte, primary astrocytes, microglial conditional media, LPS 1 μg/ml 4 h, IBC 1 h, ATP 5 mM 30 min, ELISA
Method: Primary astrocytes were first treated with microglia conditional media to induce astrogliosis ([Liddelow et al., 2017]). For this, the microglia (N9) cell line, provided by Dr. Anirban Basu (National Brain Research Centre, Gurgaon, India) was cultured in RPMI-1640. N9 cells (Passage 28-35) were seeded in 24 well plate at density 0.05 × 10^6 per well. The cells were treated with 1 μg/ml LPS, and supernatant was collected after 24 h. Seeded astrocytes were then treated with the LPS stimulated N9 cells supernatant for 24 h. Thereafter, the treatment for NLRP3 inflammasome activation was given, including priming with fresh 1 μg/ml LPS for 4 h, followed by washing and IBC or MCC950 (100 nM) treatment for 1 h in incomplete media (media without fetal bovine serum). ATP at 5 mM concentration was used as secondary signal for 30 min.
The experiment was terminated by collecting the cell supernatant.
After the termination of experiments, the supernatant was collected and analyzed for levels of cytokines. For measuring IL-1β and IL-18, supernatant collected after NLRP3 inflammasome activation as mentioned above, was subjected to ELISA. For detection of IL-1β in mice cortex, mice cortices were isolated and homogenized in RIPA buffer to measure IL-1β in homogenates. The manufacturer’s protocol was followed for measuring the cytokines. The levels of measured cytokines were normalized with the total protein content of the cells. For total protein content of cell pellet lysed with lysis buffer (0.2 N NaCl and 1% Triton-X 100) was measured.
IC50 of Isobavachalcone for IL-1β and IL-18 was calculated by using GraphPad Prism 8 software using non-linear regression analysis model. Log (inhibitor) vs. response curve was plotted.

5x-FAD mice = assay: Rotarod test; assay type: in vivo
From the text: Hemizygous 5x-FAD transgenic mice (B6.Cg-Tg(APPSwFlLon, PSEN1*M146L*L286V) 6799Vas/Mmjax; MMRRC Strain: 034848-JAX) on congenic C57BL/6J genetic background were used for experiments. The 5x-FAD mice were genotyped using APP-specific qPCR probes to detect the transgene as per the protocol of Jackson Laboratory. Six months old 5x-FAD mice were randomly divided into three groups (n = 5), based on their body weights, with three males and two females in each group. We used mixed-cohort of males and females for our study to exclude any gender biased effect of IBC. Also, AD symptoms are more pronounced in females than in males ([Aggarwal and Mielke, 2023]), making it possible that males and females respond differently to the drug and treatment. […]
To check the effect of IBC on the behavior of 5x-FAD mice, open field test (OFT), rotarod (Make; Ugo Basile, rota-rod for mice 7650) and radial arm maze (Make; Ugo Basile) tests were performed. […] After acclimatizing mice with rotarod for 5 days, their latency to fall was calculated on the day of analysis. […] Distance traveled, speed, time spent in corner and center zones and mobile episodes were recorded through an automated video tracking system using AnyMaze software. […] The movement of mice was tracked with the help of automated AnyMaze software connected with a tracking camera and various memory retention parameters were assessed.

IC50 (NLRP3 inflammasome; read-out: IC50 for IL-1β release): 2950 nM | IC50 (NLRP3 inflammasome; read-out: IC50 for IL-18 release): 2750 nM
SMILES: CC(C)=CCc1c(O)ccc(C(=O)/C=C/c2ccc(O)cc2)c1O [IBC, isobavachalcone]
inhibitory effect on release of IL-1β when autophagy is inhibited (NLRP3 inflammasome; pre-treatment with 20 nM bafilomycin A1 for 1 h, ELISA and western blotting): completely reversed | latency to fall from rotarod (5x-FAD mice; 25 mg/kg oral): 92 s | latency to fall from rotarod (5x-FAD mice; 50 mg/kg oral): 118 s
